Test results from patent US8952024B2, “Herbicidal pyrimidone derivatives” (E I du Pont de Nemours and Company, priority 2009, dated 2015).

Assays:
Experiment in all cases: Test B pre-/postemergence plant response
Format in all cases: in vivo
Conditions in all cases: Postemergence
[1] = system: Italian ryegrass (Lolium multiflorum)
Summary of the method: (§1)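 Visual injury, 0–100 scale (100 = complete control), rated against controls after 13 to 15 days in greenhouse. Pre-emergence: seeds in loam/sand soil, treated at planting. Post-emergence: 1- to 4-leaf plants (2 to 18 cm) in peat/vermiculite medium. Compounds formulated in non-phytotoxic solvent with surfactant.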

[2] = system: blackgrass (Alopecurus myosuroides)
Summary of the method: as §1

[3] = system: cocklebur (Xanthium strumarium)
Summary of the method: as §1

corn (Zea mays) = system: corn (Zea mays)
Summary of the method: as §1

[4] = system: giant foxtail (Setaria faberii)
Summary of the method: as §1

[5] = system: goosegrass (Eleusine indica)
Summary of the method: as §1

[6] = system: green foxtail (Setaria viridis)
Summary of the method: as §1

[7] = system: johnsongrass (Sorghum halepense)
Summary of the method: as §1

kochia (Kochia scoparia) = system: kochia (Kochia scoparia)
Summary of the method: as §1

[8] = system: large crabgrass (Digitaria sanguinalis)
Summary of the method: as §1

[9] = system: morningglory (Ipomoea coccinea)
Summary of the method: as §1

[10] = system: ragweed (common ragweed, Ambrosia elatior)
Summary of the method: as §1

soybean (Glycine max) = system: soybean (Glycine max)
Summary of the method: as §1

[11] = system: velvetleaf (Abutilon theophrasti)
Summary of the method: as §1

[12] = 31 g ai/ha, 0 to 100 scale (0 no effect, 100 complete control)
[13] = 62 g ai/ha, scale 0 to 100 (0 no effect, 100 complete control)
[14] = 250 g ai/ha, scale 0 to 100 (0 no effect, 100 complete control), 13 to 15 days
[15] = 125 g ai/ha, scale 0 to 100 (0 no effect, 100 complete control)
[16] = 125 g ai/ha, scale 0 (no effect) to 100 (complete control), 13 to 15 days

COCCn1c(-c2ccsc2)ncc(C(=O)C2=C(O)C3CCC(C3)C2=O)c1=O (stereo not shown) [Compound 228]
55: Plant response rating, Blackgrass [2, 14]
85: Plant response rating, Corn (corn (Zea mays); [13]) | Plant response rating, Corn (corn (Zea mays); [15]) | Plant response rating, Foxtail, Giant [4, 12] | Plant response rating, Foxtail, Giant [4, 13] | Plant response rating, Goosegrass [5, 15] | Plant response rating, Foxtail, Green [6, 12]
80: Plant response rating, Corn (corn (Zea mays); [12]) | Plant response rating, Goosegrass [5, 12] | Plant response rating, Goosegrass [5, 13] | Plant response rating, Crabgrass, Large [8, 12] | Plant response rating, Ragweed [10, 13] | Plant response rating, Velvetleaf [11, 12]
35: Plant response rating, Blackgrass [2, 13]
75: Plant response rating, Johnsongrass [7, 12] | Plant response rating, Johnsongrass [7, 13]
50: Plant response rating, Blackgrass [2, 15]
5: Plant response rating, Blackgrass [2, 12]
100: Plant response rating, Cocklebur [3, 15] | Plant response rating, Cocklebur [3, 14] | Plant response rating, Foxtail, Green [6, 14] | Plant response rating, Johnsongrass [7, 14] | Plant response rating, Kochia (kochia (Kochia scoparia); [13]) | Plant response rating, Kochia (kochia (Kochia scoparia); [15]) | Plant response rating, Kochia (kochia (Kochia scoparia); [14]) | Plant response rating, Morningglory [9, 12] | Plant response rating, Morningglory [9, 13] | Plant response rating, Morningglory [9, 15] | Plant response rating, Morningglory [9, 14] | Plant response rating, Soybean (soybean (Glycine max); [14]) | Plant response rating, Velvetleaf [11, 13] | Plant response rating, Velvetleaf [11, 14]
95: Plant response rating, Foxtail, Giant [4, 15] | Plant response rating, Foxtail, Giant [4, 14] | Plant response rating, Johnsongrass [7, 15] | Plant response rating, Soybean (soybean (Glycine max); [12])
70: Plant response rating, Ragweed [10, 12]
98: Plant response rating, Cocklebur [3, 12] | Plant response rating, Cocklebur [3, 13] | Plant response rating, Foxtail, Green [6, 15] | Plant response rating, Crabgrass, Large [8, 13] | Plant response rating, Crabgrass, Large [8, 15] | Plant response rating, Crabgrass, Large [8, 14] | Plant response rating, Ragweed [10, 14] | Plant response rating, Soybean (soybean (Glycine max); [13])
90: Plant response rating, Corn (corn (Zea mays); [14]) | Plant response rating, Goosegrass [5, 14] | Plant response rating, Foxtail, Green [6, 13] | Plant response rating, Kochia (kochia (Kochia scoparia); [12])
0: Plant response rating, Ryegrass, Italian [1, 12] | Plant response rating, Ryegrass, Italian [1, 13] | Plant response rating, Ryegrass, Italian [1, 14]

O=C(C1=C(O)C2CCC(C2)C1=O)c1cnc(-c2ccsc2)n(CC2CCCO2)c1=O (stereo not shown) [Compound 229]
90: Plant response rating, Cocklebur [3, 13] | Plant response rating, Crabgrass, Large [8, 13] | Plant response rating, Crabgrass, Large [8, 15] | Plant response rating, Crabgrass, Large [8, 14]
100: Plant response rating, Cocklebur [3, 15] | Plant response rating, Cocklebur [3, 14] | Plant response rating, Johnsongrass [7, 13] | Plant response rating, Johnsongrass [7, 15] | Plant response rating, Johnsongrass [7, 14] | Plant response rating, Kochia (kochia (Kochia scoparia); [14]) | Plant response rating, Morningglory [9, 13] | Plant response rating, Morningglory [9, 15] | Plant response rating, Morningglory [9, 14]
85: Plant response rating, Cocklebur [3, 12] | Plant response rating, Corn (corn (Zea mays); [15]) | Plant response rating, Corn (corn (Zea mays); [14]) | Plant response rating, Velvetleaf [11, 14]
5: Plant response rating, Blackgrass [2, 15]
80: Plant response rating, Corn (corn (Zea mays); [13]) | Plant response rating, Foxtail, Giant [4, 13] | Plant response rating, Foxtail, Giant [4, 15] | Plant response rating, Goosegrass [5, 14] | Plant response rating, Foxtail, Green [6, 13] | Plant response rating, Foxtail, Green [6, 15] | Plant response rating, Kochia (kochia (Kochia scoparia); [15]) | Plant response rating, Crabgrass, Large [8, 12] | Plant response rating, Ragweed [10, 12] | Plant response rating, Ragweed [10, 13]
40: Plant response rating, Foxtail, Green [6, 12]
0: Plant response rating, Ryegrass, Italian [1, 12] | Plant response rating, Ryegrass, Italian [1, 13] | Plant response rating, Blackgrass [2, 12] | Plant response rating, Blackgrass [2, 13]
10: Plant response rating, Ryegrass, Italian [1, 14]
98: Plant response rating, Morningglory [9, 12] | Plant response rating, Soybean (soybean (Glycine max); [13]) | Plant response rating, Soybean (soybean (Glycine max); [14])
70: Plant response rating, Corn (corn (Zea mays); [12]) | Plant response rating, Goosegrass [5, 12] | Plant response rating, Goosegrass [5, 13] | Plant response rating, Goosegrass [5, 15] | Plant response rating, Johnsongrass [7, 12] | Plant response rating, Kochia (kochia (Kochia scoparia); [13])
55: Plant response rating, Kochia (kochia (Kochia scoparia); [12])
95: Plant response rating, Foxtail, Giant [4, 14] | Plant response rating, Foxtail, Green [6, 14] | Plant response rating, Ragweed [10, 14] | Plant response rating, Soybean (soybean (Glycine max); [12])
30: Plant response rating, Blackgrass [2, 14]
75: Plant response rating, Foxtail, Giant [4, 12] | Plant response rating, Velvetleaf [11, 12] | Plant response rating, Velvetleaf [11, 13]

COCCn1c(-c2cccc(C)c2)ncc(C(=O)C2=C(O)C3CCC(C3)C2=O)c1=O (stereo not shown) [Compound 233]
65: Plant response rating, Morningglory [9, 12]
90: Plant response rating, Cocklebur [3, 12] | Plant response rating, Foxtail, Giant [4, 12] | Plant response rating, Foxtail, Green [6, 13] | Plant response rating, Crabgrass, Large [8, 13]
95: Plant response rating, Foxtail, Giant [4, 13] | Plant response rating, Goosegrass [5, 13] | Plant response rating, Foxtail, Green [6, 15]
80: Plant response rating, Crabgrass, Large [8, 12] | Plant response rating, Morningglory [9, 13] | Plant response rating, Ragweed [10, 12] | Plant response rating, Velvetleaf [11, 12]
100: Plant response rating, Cocklebur [3, 13] | Plant response rating, Cocklebur [3, 15] | Plant response rating, Cocklebur [3, 14] | Plant response rating, Foxtail, Green [6, 14] | Plant response rating, Crabgrass, Large [8, 14] | Plant response rating, Morningglory [9, 14] | Plant response rating, Soybean (soybean (Glycine max); [14]) | Plant response rating, Velvetleaf [11, 14]
50: Plant response rating, Blackgrass [2, 14] | Plant response rating, Corn (corn (Zea mays); [13])
0: Plant response rating, Johnsongrass [7, 12]
30: Plant response rating, Ryegrass, Italian [1, 12] | Plant response rating, Blackgrass [2, 13] | Plant response rating, Blackgrass [2, 15] | Plant response rating, Corn (corn (Zea mays); [12])
60: Plant response rating, Ryegrass, Italian [1, 14]
5: Plant response rating, Blackgrass [2, 12] | Plant response rating, Johnsongrass [7, 13]
45: Plant response rating, Ryegrass, Italian [1, 13]
25: Plant response rating, Johnsongrass [7, 15] | Plant response rating, Johnsongrass [7, 14]
98: Plant response rating, Foxtail, Giant [4, 15] | Plant response rating, Foxtail, Giant [4, 14] | Plant response rating, Goosegrass [5, 15] | Plant response rating, Goosegrass [5, 14] | Plant response rating, Crabgrass, Large [8, 15] | Plant response rating, Morningglory [9, 15] | Plant response rating, Ragweed [10, 14] | Plant response rating, Soybean (soybean (Glycine max); [12]) | Plant response rating, Soybean (soybean (Glycine max); [13])
70: Plant response rating, Kochia (kochia (Kochia scoparia); [12])
85: Plant response rating, Corn (corn (Zea mays); [15]) | Plant response rating, Corn (corn (Zea mays); [14]) | Plant response rating, Goosegrass [5, 12] | Plant response rating, Foxtail, Green [6, 12] | Plant response rating, Kochia (kochia (Kochia scoparia); [13]) | Plant response rating, Ragweed [10, 13] | Plant response rating, Velvetleaf [11, 13]

CCn1c(-c2ccccc2)ncc(C(=O)C2=C(O)C3CCC(C3)C2=O)c1=O (stereo not shown) [Compound 239]
70: Plant response rating, Soybean (soybean (Glycine max); [12])
85: Plant response rating, Foxtail, Giant [4, 13] | Plant response rating, Foxtail, Green [6, 13]
60: Plant response rating, Johnsongrass [7, 16]
98: Plant response rating, Foxtail, Giant [4, 14] | Plant response rating, Goosegrass [5, 13] | Plant response rating, Goosegrass [5, 16] | Plant response rating, Kochia (kochia (Kochia scoparia); [13]) | Plant response rating, Kochia (kochia (Kochia scoparia); [16]) | Plant response rating, Kochia (kochia (Kochia scoparia); [14]) | Plant response rating, Crabgrass, Large [8, 14] | Plant response rating, Ragweed [10, 13] | Plant response rating, Soybean (soybean (Glycine max); [16]) | Plant response rating, Soybean (soybean (Glycine max); [14])
95: Plant response rating, Foxtail, Green [6, 14] | Plant response rating, Crabgrass, Large [8, 16] | Plant response rating, Morningglory [9, 12] | Plant response rating, Ragweed [10, 12] | Plant response rating, Soybean (soybean (Glycine max); [13])
100: Plant response rating, Cocklebur [3, 13] | Plant response rating, Cocklebur [3, 16] | Plant response rating, Cocklebur [3, 14] | Plant response rating, Goosegrass [5, 14] | Plant response rating, Morningglory [9, 16] | Plant response rating, Morningglory [9, 14] | Plant response rating, Ragweed [10, 16] | Plant response rating, Ragweed [10, 14] | Plant response rating, Velvetleaf [11, 12] | Plant response rating, Velvetleaf [11, 13] | Plant response rating, Velvetleaf [11, 16] | Plant response rating, Velvetleaf [11, 14]
50: Plant response rating, Blackgrass [2, 14]
30: Plant response rating, Blackgrass [2, 16]
75: Plant response rating, Corn (corn (Zea mays); [14]) | Plant response rating, Foxtail, Giant [4, 12] | Plant response rating, Crabgrass, Large [8, 12]
20: Plant response rating, Johnsongrass [7, 13]
5: Plant response rating, Blackgrass [2, 12] | Plant response rating, Blackgrass [2, 13] | Plant response rating, Corn (corn (Zea mays); [12])
90: Plant response rating, Cocklebur [3, 12] | Plant response rating, Foxtail, Giant [4, 16] | Plant response rating, Foxtail, Green [6, 16] | Plant response rating, Kochia (kochia (Kochia scoparia); [12]) | Plant response rating, Crabgrass, Large [8, 13]
80: Plant response rating, Goosegrass [5, 12] | Plant response rating, Foxtail, Green [6, 12]
0: Plant response rating, Ryegrass, Italian [1, 12] | Plant response rating, Ryegrass, Italian [1, 13] | Plant response rating, Ryegrass, Italian [1, 16] | Plant response rating, Ryegrass, Italian [1, 14] | Plant response rating, Johnsongrass [7, 12]
45: Plant response rating, Corn (corn (Zea mays); [13]) | Plant response rating, Corn (corn (Zea mays); [16])
